Measurements: patent US20260365692A1, “COMPOSITIONS COMPRISING PROTEINS DISSOLVED IN FLUORINATED SOLVENTS, AND METHODS OF MAKING AND USING THE SAME” (priority 2022, published 2026)

Columns and labels:
[1] = test system: β-gal; assay: Circular dichroism with PFNA, β-gal; conditions: 0.001-1 mM PFNA
Description: (§1) FIGS. 14A-14L depict circular dichroism spectra of Hb (FIG. 14A), GFP (FIG. 14B), BSA (FIG. 14C), β-Gal (FIG. 14D), rabbit serum IgG (FIG. 14E), transferrin (FIG. 14F), and urease (FIG. 14G) in the absence (black line) or presence (dashed lines) of PFNA. Increasing dash sequence indicated higher concentration of PFNA. FIG. 14H: Change in molar ellipticity at 216 nm (Δθ216) of PFNA-treated proteins, relative to native controls, as a function of increasing ligand concentration. FIG. 14I: Percentage change in secondary structural motifs of Hb, β-Gal and IgG between the native protein and 1 mM PFNA treated samples. β-sheet structures were further differentiated into parallel and antiparallel conformations. Hb, β-Gal and IgG were prioritized for analysis based on their significant spectral shift in the presence of 1 mM PFNA. FIGS. 14J-14L: Sensograms for BSA (FIG. 14J), β-gal (FIG. 14K), and IgG (FIG. 14L) showing relative response (R.U.) at 10, 25, 50, 75, and 100 μM.
(§2) To explore PFNA-mediated changes in protein structure, dose-response circular dichroism (CD) studies were performed (FIG. 14A-14G). […] Remarkably, these structural changes endured even at sub-stoichiometric PFNA:protein ratios (see 0.001 mM PFNA in […]; protein concentration was constant at 0.01 mM).

[2] = target: bovine serum albumin (BSA) (Bos taurus, UniProt P02769); assay: Circular dichroism with PFNA, BSA
Description: as §1, §2

[3] = test system: cells; assay: Cellular uptake of PFNA-complexed proteins; type: cell-based
Description: Multiplexed in vitro assays were employed to probe the influence of PFNA interactions on protein uptake and transport in cells. A549 and PC9 human lung cells were prioritized for these assays given that pulmonary tissue is a primary site of perfluoroalkyl bioaccumulation in humans (Reference: 63). Before initiating experiments, cellular toxicity assays established a maximum tolerated dose of PFNA to avoid confounding protein transport experiments with substantive cell death. Protein uptake was then studied using green fluorescent protein (GFP) and bovine serum albumin (BSACy5) as model biologics that employ non-specific pinocytic mechanisms for cellular entry.

[4] = test system: A549 cells; assay: Annexin V/propidium iodide co-staining of A549 cells; type: cell-based, human; conditions: PFNA
Description: FIGS. 20A-20D depicts annexin-V/PI co-staining of A549 cells treated without or with PFNA at 2 and 24 hours. FIGS. 20A-20C: Flow cytometry scatter plots. FIG. 20D: quadrant data comparing the population of unaffected cells (native), to cells displaying lipid translocation (Lip. Tran.) membrane permeabilization (Mem. Perm.), or both.
The ability of PFNA to modulate protein uptake may be explained by the reported anchorage of fluorinated amphiphiles within cell membranes to alter lipid bilayer fluidity and liquid-crystalline phase transitions. To test this assertion, and inform the interpretation of the protein uptake results, the annexin V (AV)/propidium iodide (PI) assay, commonly used to study apoptosis, was repurposed to explore membrane dynamics following PFNA exposure (FIGS. 20A-20D). Here, AV bound phosphatidylserine lipids exposed via inner-to-outer leaflet translocation, while PI positively labeled cells with permeabilized membranes. Comparing dye uptake at early (2 hour) and late (24 hour) PFNA exposure times allowed interpretation of lipid translocation (AV^+, PI^−), membrane permeabilization (AV^−, PI^+), both (AV^+, PI^+), or neither (AV^−, PI^−). […]

[5] = test system: HepG2 cells; assay: HepG2 MTT viability assay (Example 2); type: cell-based, human; conditions: Homo sapiens, HepG2, 37 °C overnight
Description: FIG. 28 depicts a viability assay for HepG2 cells treated with two first generation compounds and two second generation compounds.
Next, viability assays were performed by seeding HepG2 (liver cancer cell line) onto 96 well plates and allowing the cells to adhere overnight. DMEM cell culture media containing various concentrations of each FTag compound were then added, and the plates were incubated at 37 °C overnight. The supernatant was then removed and MTT viability dyes were added to each well and allowed to convert for 2 hours. Dye absorbance for each condition was then compared to positive (20% DMSO) and negative (blank media) controls to calculate % viability (FIG. 28).

[6] = Acute toxicity of β-Gal formulations in mice (Example 4); type: in vivo, C57BL/6J mice; conditions: 24 h
Description: FIG. 56 depicts serologic toxicology results from C57BL/6J mice 24 hours after administration of saline (control), β-GalSaline or β-GalExt. PFOc. Data shown as box and whisker plot±s.d. of n=5 technical replicates. Statistical significance determined using Student's t-test and represented as * p<0.05; all other comparisons were found not to be significant (p>0.05).
Finally, to assess the potential for acute toxicity of the fluorous dispersant, serologic chemistry analysis and histology was performed 24 hours after treating mice with β-Gal delivered from saline or PFOc extractions. […] Reduction of this marker can indicate a transient impairment of kidney and/or liver function.

[7] = β-Gal delivered from PFOc vs saline

bovine serum albumin (BSA), sequence (P02769 25-607): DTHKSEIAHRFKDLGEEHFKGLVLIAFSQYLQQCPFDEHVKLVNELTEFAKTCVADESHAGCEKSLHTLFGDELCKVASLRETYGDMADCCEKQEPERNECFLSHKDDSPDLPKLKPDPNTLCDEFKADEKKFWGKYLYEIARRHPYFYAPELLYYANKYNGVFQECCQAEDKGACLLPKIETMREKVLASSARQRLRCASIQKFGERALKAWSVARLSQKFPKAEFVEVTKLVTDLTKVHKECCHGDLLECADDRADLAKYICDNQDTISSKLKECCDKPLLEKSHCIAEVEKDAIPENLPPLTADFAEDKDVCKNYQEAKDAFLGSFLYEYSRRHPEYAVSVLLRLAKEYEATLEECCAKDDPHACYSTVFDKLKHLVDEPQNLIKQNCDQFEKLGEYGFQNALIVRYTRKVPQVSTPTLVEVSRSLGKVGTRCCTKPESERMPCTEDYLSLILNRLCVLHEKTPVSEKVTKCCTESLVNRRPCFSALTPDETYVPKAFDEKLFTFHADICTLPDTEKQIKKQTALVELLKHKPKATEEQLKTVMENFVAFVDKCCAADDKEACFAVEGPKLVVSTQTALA

| Molecule | CD structural change, β-gal [1] | CD structural profile, BSA [2] | cellular uptake of complexed proteins [3] | lipid translocation (AV+, PI−) ([4]; 2 hours) | lipid translocation and membrane permeability (AV+, PI+) ([4]; 24 hours) | IC50 [5] [µM] | histologic analysis of vital organs ([6]; kidney, liver, lung, spleen) | albumin/globulin (ALB/GLOB) ratio [6, 7] | other renal (CREA, BUN, TP) and hepatic (ALT, AST, ALKP) markers [6, 7] |
| --- | --- | --- | --- | --- | --- | --- | --- | --- | --- |
| O=C(O)C(F)(F)C(F)(F)C(F)(F)C(F)(F)C(F)(F)C(F)(F)C(F)(F)C(F)(F)F [Compound 7, perfluoronanonic acid] | marked increase in β-sheet content | remained largely unchanged | significantly enhanced | elevated | increased | 540 | – | – | – |
| β-Gal: β-Galactosidase (β-Gal), dissolved in PBS/saline or dispersed in PFOc | – | – | – | – | – | – | did not identify pathologic signs of necrosis, cellular infiltration, inflammation, or hemorrhage | statistically significant reduction | absence of statistically significant changes |
